species: Mus musculus; experiment: Effective concentration required to protect mouse embryo cortical neurons against a DNA-damaging agent; type: functional; conditions: not given

| Structure (SMILES) | EC50 [nM] |
| --- | --- |
| O=[N+]([O-])c1ccc(-c2cn3c4c(sc3n2)CCCC4)cc1 | ~30 |
| Br.COc1ccc(C(=O)C(C#N)n2c3c(sc2=N)CCCC3)cc1 (stereo unspecified) | ~30 |

system: not listed separately; experiment: Half reaction time was determined; type: ADME; conditions: mouse

| Structure (SMILES) | half-life [h] |
| --- | --- |
| Br.COc1ccc(C(=O)C(C#N)n2c3c(sc2=N)CCCC3)cc1 (stereo unspecified) | 12 |
| Br.N=c1sc2c(n1CC(=O)c1ccc([N+](=O)[O-])cc1)CC1CCCCC1C2 (stereo unspecified) | 5 |

Second part, the compound after the results:

| half-life [h] | Structure (SMILES) |
| --- | --- |
| 6 | Br.N=c1sc2c(n1CC(=O)c1ccc([N+](=O)[O-])cc1)CCCC2 |
| 4 | Br.Cc1ccc(C(=O)Cn2c3c(sc2=N)CCCC3)cc1 |

Source: ChEMBL document CHEMBL1141906, “Novel cyclized Pifithrin-alpha p53 inactivators: synthesis and biological studies” (Bioorg Med Chem Lett, 2005)
